# Measured values published in patent publication US20210386367A1, “DEVICES AND SYSTEMS FOR GASTROINTESTINAL MICROBIOME DETECTION AND MANIPULATION” (Progenity, Inc., priority 2018, published 2021).
# Several values for one entry are separate records, joined by “and”; a condition that tells them apart may be missing. Identical values can stand only once. Like-named read-outs stand apart in the source and are kept apart here.
# How the values were obtained:
# Type in all cases: cell-based
# [1] = tested on: Viridans group Streptococcus; experiment: Broth microdilution MIC, 15 clinical isolates; conditions: for Mode: modal MIC
# Method: Minimal inhibitory concentration (MIC) values were determined by broth microdilution or agar dilution in accordance with guidelines from the Clinical and Laboratory Standards Institute (CLSI; (1) “Methods for Dilution Antimicrobial Susceptibility Tests for Bacteria That Grow Aerobically; Approved Standard; 11th ed.” CLSI standard M07-A11, 2018; (2) “Performance Standards for Antimicrobial Susceptibility Testing; Twenty-Eighth Informational Supplement,” CLSI document M100-S28, 2018; and (3) “Methods for Antimicrobial Susceptibility Testing of Anaerobic Bacteria; Approved Standard—Eighth Edition,” CLSI document M11-A8, 2012).
# Tested aerobically by broth microdilution: • Escherichia coli, n=50 • Klebsiella spp., n=50 • Pseudomonas aeruginosa, n=50 • Streptococcus spp., n=50 • Staphylococcus aureus, n=50 • Enterococcus faecalis, n=50 • Enterobacter aerogenes, n=50 • Proteus mirabilis, n=50
# Broth microdilution testing of aerobic bacteria was conducted in cation-adjusted Mueller Hinton broth (MHBII). For testing streptococci, lysed horse blood (LHB) was added to MHBII broth at a final concentration of 3%. Where LHB was used, it was added after filtering.
# Broth microdilution susceptibility testing in 96-well microplates was conducted in accordance with CLSI methods (1) and (2). Automated liquid handlers were used to conduct serial dilutions and liquid transfers, including the Multidrop 384 (Labsystems, Helsinki, Finland), Biomek 2000, and the Biomek FX (Beckman Coulter, Fullerton, Calif.). All wells in columns 2 through 12 of a standard 96-well microdilution plate (Costar 3795) were filled with 150 μL of the appropriate diluent. Then, 300 μL of the test agents were added to the wells of column 1 of the plates at 100× the highest final concentration to be tested. Serial two-fold dilutions were made across the rows through column 11 using the Biomek 2000. The wells of column 12 contained no drug and served as the growth control wells. This plate served as the “mother plate” from which MIC assay plates or “daughter plates” were made.
# The daughter plates were loaded with 190 μL per well of the appropriate medium using the Multidrop 384. The daughter plates were created using the Biomek FX which transferred 2 μL of drug solution from each well of a mother plate to each corresponding well of the daughter plate in a single step. A standardized inoculum of each test organism was prepared per CLSI methods (1) to equal a 0.5 McFarland standard, followed by a dilution of 1:20 for aerobes and 1:10 for anaerobes. The plates were then inoculated with 10 μL of the diluted inoculum using the Biomek 2000 from low to high drug concentration, resulting in a final concentration of approximately 5×10^5 CFU/mL per well. An un-inoculated plate was incubated in parallel for each medium for the purpose of assessing solubility of the drug in the test media.
# Inoculated plates were stacked 3 or 4 high, covered with a sterile lid on the top plate, placed into boxes with CO2 planchets (streptococci) or plastic bags (all other isolates). Plates were incubated at 35° C. for 16-24 hr in ambient air for aerobes or for 42-48 hr in the anaerobic environment of the Bactron II anaerobe chamber (Sheldon Manufacturing Co.; Cornelius, Oreg.). Following incubation, the microplates were removed from the incubator and viewed from the bottom using a plate viewer. The MIC values were read and recorded as the lowest concentration of drug that inhibited visible growth of the organism as per CLSI methods (1) and (2).
# [2] = tested on: Staphylococcus aureus clinical isolates; experiment: MIC distribution against clinical isolates
# From the text: (§1) As used herein, “minimum inhibitory concentration” or “MIC” refers to the lowest concentration of an antimicrobial agent, for example, an antimicrobial agent as described herein, required to inhibit the growth of an organism.
# (§2) Many susceptibility testing methods are known in the art and can be used as described herein (see, e.g., Jorgensen and Ferraro (2009) Clinical Infectious Diseases 49:1749-1755; and Maurer et al. (2017) Infectious Disease Reports 9:6839; the entire contents of each of the foregoing are incorporated herein by reference). For example, antimicrobial susceptibility can be determined using conventional culture based methods such as the broth or agar dilution test. In these dilution tests, the bacterial isolate of interest is inoculated onto different media that include serial dilutions of an antimicrobial agent, and incubated under appropriate conditions (e.g., overnight at 37° C.) to allow for growth to occur. Following the incubation period, the media is examined to determine bacterial growth. The lowest concentration of antibiotic that prevents growth represents the minimal inhibitory concentration (MIC). Broth dilution tests can be miniaturized and mechanized allowing for reproducibility and high throughput.
# [3] = tested on: Enterococcus faecalis clinical isolates; experiment: MIC distribution against clinical isolates; conditions: 50 E. faecalis isolates
# From the text: as §1, §2
# [4] = 15 Viridans group Streptococci clinical isolates
# [5] = MIC 0.008 μg/mL, 50 S. aureus isolates
# [6] = MIC 2 μg/mL, 50 S. aureus isolates
# [7] = MIC 4 μg/mL, 50 S. aureus isolates
# [8] = MIC 8 μg/mL, 50 S. aureus isolates
# [9] = MIC 32 μg/mL, 50 S. aureus isolates
# [10] = MIC 64 μg/mL, 50 S. aureus isolates
# [11] = MIC >64 μg/mL, 50 S. aureus isolates
# [12] = MIC 0.015 μg/mL, 50 S. aureus isolates
# [13] = MIC 0.03 μg/mL, 50 S. aureus isolates
# [14] = MIC 0.06 μg/mL, 50 S. aureus isolates
# [15] = MIC 1 μg/mL, 50 S. aureus isolates
# [16] = MIC >8 μg/mL, 50 S. aureus isolates
smiles,measurement,setting,value
CO/N=C(\C(=O)N[C@@H]1C(=O)N2C(C(=O)O)=C(CSc3nc(=O)c(=O)[nH]n3C)CS[C@H]12)c1csc(N)n1 [ceftriaxone],MIC50,[1]; [4],0.06 mg/L
same,MIC90,[1]; [4],0.5 mg/L
same,MIC range,[1]; [4],0.008 to 1 mg/L
same,% S,"[1]; 15 Viridans group Streptococci clinical isolates, MXF by FDA breakpoints",100%
same,MIC50,"[1]; Streptococcus, read-out: MIC50",0.06 mg/L
same,MIC90,"[1]; Streptococcus, read-out: MIC90",0.5 mg/L
same,Mode,[1]; [4],0.06 µg/mL
same,Number of test isolates at MIC,[2]; [5],0
same,Cumulative percentage of isolates inhibited at MIC,[2]; [6],6.0%
same,Number of test isolates at MIC,[2]; [6],3
same,Cumulative percentage of isolates inhibited at MIC,[2]; [7],38.0%
same,Number of test isolates at MIC,[2]; [7],16
same,Cumulative percentage of isolates inhibited at MIC,[2]; [8],44.0%
same,Number of test isolates at MIC,[2]; [8],3
same,Cumulative percentage of isolates inhibited at MIC,[2]; [9],52.0%
same,Number of test isolates at MIC,[2]; [9],4
same,Cumulative percentage of isolates inhibited at MIC,[2]; [10],56.0%
same,Number of test isolates at MIC,[2]; [10],2
same,Number of test isolates at MIC,"[2]; MIC >16 μg/mL, 50 S. aureus isolates",2
same,Cumulative percentage of isolates inhibited at MIC,[2]; [11],100.0%
same,Number of test isolates at MIC,[2]; [11],22
same,Cumulative percentage of isolates inhibited at MIC,[3]; MIC 1 μg/mL,2.0%
same,Number of test isolates at MIC,[3]; MIC 1 μg/mL,1
same,Cumulative percentage of isolates inhibited at MIC,[3]; MIC 16 μg/mL,4.0%
same,Number of test isolates at MIC,[3]; MIC 16 μg/mL,1
same,Cumulative percentage of isolates inhibited at MIC,[3]; MIC 64 μg/mL,10.0%
same,Number of test isolates at MIC,[3]; MIC 64 μg/mL,3
same,Cumulative percentage of isolates inhibited at MIC,[3]; MIC >64 μg/mL,100.0%
same,Number of test isolates at MIC,[3]; MIC >64 μg/mL,45
CO[C@H]1/C=C/O[C@@]2(C)Oc3c(C)c(O)c4c(O)c(c5c(nc6cc(C)ccn65)c4c3C2=O)NC(=O)/C(C)=C\C=C\[C@H](C)[C@H](O)[C@@H](C)[C@@H](O)[C@@H](C)[C@H](OC(C)=O)[C@@H]1C [rifaximin],MIC50,[1],0.06 mg/L
same,MIC90,[1],0.12 mg/L
same,MIC50,[1]; [4],0.06 mg/L
same,MIC90,[1]; [4],0.12 mg/L
same,MIC range,[1]; [4],0.015 to 0.1 mg/L
same,Mode,[1]; [4],0.06 µg/mL
same,Cumulative percentage of isolates inhibited at MIC,[2]; [5],8.0%
same,Cumulative percentage of isolates inhibited at MIC,[2]; [9],100.0%
same,Number of test isolates at MIC,[2]; [9],1
same,Cumulative percentage of isolates inhibited at MIC,[2]; listed as RFX,70.0% and 78.0% and 94.0% and 98.0%
same,Number of test isolates at MIC,[3]; MIC 0.5 μg/mL,5
COc1c(N2C[C@@H]3CCCN[C@@H]3C2)c(F)cc2c(=O)c(C(=O)O)cn(C3CC3)c12 [moxifloxacin],MIC range,[1]; [4],0.06 to 8 mg/L
same,MIC50,"[1]; Streptococcus, 15 Viridans group Streptococci clinical isolates, read-out: MIC50",0.12 mg/L
same,MIC90,"[1]; Streptococcus, 15 Viridans group Streptococci clinical isolates, read-out: MIC90",4 mg/L
same,Mode,[1]; [4],0.06 µg/mL
same,Cumulative percentage of isolates inhibited at MIC,[2]; [12],14.0%
same,Number of test isolates at MIC,[2]; [12],7
same,Cumulative percentage of isolates inhibited at MIC,[2]; [13],30.0%
same,Number of test isolates at MIC,[2]; [13],8
same,Cumulative percentage of isolates inhibited at MIC,[2]; [14],48.0%
same,Number of test isolates at MIC,[2]; [14],9
same,Number of test isolates at MIC,"[2]; MIC 0.5 μg/mL, 50 S. aureus isolates",4
same,Cumulative percentage of isolates inhibited at MIC,[2]; [15],84.0%
same,Number of test isolates at MIC,[2]; [15],12
same,Cumulative percentage of isolates inhibited at MIC,[2]; [6],94.0%
same,Number of test isolates at MIC,[2]; [6],5
same,Cumulative percentage of isolates inhibited at MIC,[2]; [7],96.0%
same,Number of test isolates at MIC,[2]; [7],1
same,Cumulative percentage of isolates inhibited at MIC,[2]; [8],98.0%
same,Number of test isolates at MIC,[2]; [8],1
same,Cumulative percentage of isolates inhibited at MIC,[2]; [16],100.0%
same,Number of test isolates at MIC,[2]; [16],1
same,Number of test isolates at MIC,"[2]; MIC […], 50 S. aureus isolates",1
same,Cumulative percentage of isolates inhibited at MIC,[3]; MIC 0.06 μg/mL,2.0%
same,Number of test isolates at MIC,[3]; MIC 0.06 μg/mL,1
same,Cumulative percentage of isolates inhibited at MIC,[3]; MIC 0.5 μg/mL,52.0%
same,Number of test isolates at MIC,[3]; MIC 0.5 μg/mL,4
same,Cumulative percentage of isolates inhibited at MIC,[3]; MIC 2 μg/mL,54.0%
same,Number of test isolates at MIC,[3]; MIC 2 μg/mL,1
same,Cumulative percentage of isolates inhibited at MIC,[3]; MIC 4 μg/mL,56.0%
same,Number of test isolates at MIC,[3]; MIC 4 μg/mL,1
same,Cumulative percentage of isolates inhibited at MIC,[3]; MIC 8 μg/mL,66.0%
same,Number of test isolates at MIC,[3]; MIC 8 μg/mL,5
same,Cumulative percentage of isolates inhibited at MIC,[3]; MIC >8 μg/mL,100.0%
same,Number of test isolates at MIC,[3]; MIC >8 μg/mL,17
